Where two headings read alike, the source gives them in different places. *1 amine or outer side, *2 acyl side, *3 side chain or, on linkers, in order; H or OH if unused. Where a SMILES comes first, the peptide text is derived from it. Side-chain parts run from the residue outwards. [ ]: non-standard residue; d: D form. The star is where a group is joined. Argψ(CH2NH)TyrNH2 = N=C(N)NCCC[C@@H](CN[C@@H](Cc1ccc(O)cc1)C(N)=O)N*; C20 diacid = O=C(O)CCCCCCCCCCCCCCCCCCC(=O)*; C18 diacid = O=C(O)CCCCCCCCCCCCCCCCC(=O)*; γGlu = O=C(O)[C@H](CCC(=O)[*:2])N[*:1]; εLys = N[C@@H](CCCCN[*:1])C(=O)[*:2]; Aib = CC(C)(N)C(=O)O
How the values were obtained:
Format in all cases: cell-based
hGLP1R = target: T1, hGLP1R (Homo sapiens, UniProt P43220); assay: hGLP1R CreLuc assay in 0.5% and 100% plasma (HEK-293 CRE-luciferase reporter cells); conditions: HEK-293 reporter cells
T1 construct: expressed in transfected cells; host or cells: HEK-293 CRE-luciferase reporter cells

hGIPR = target: T2, hGIPR (Homo sapiens, UniProt P48546); assay: hGIPR CreLuc assay in 0.5% and 100% plasma (CHO CRE-luciferase reporter cells)
T2 construct: expressed in transfected cells; host or cells: CHO CRE-luciferase reporter cells
T2 sequence (P48546 22-466): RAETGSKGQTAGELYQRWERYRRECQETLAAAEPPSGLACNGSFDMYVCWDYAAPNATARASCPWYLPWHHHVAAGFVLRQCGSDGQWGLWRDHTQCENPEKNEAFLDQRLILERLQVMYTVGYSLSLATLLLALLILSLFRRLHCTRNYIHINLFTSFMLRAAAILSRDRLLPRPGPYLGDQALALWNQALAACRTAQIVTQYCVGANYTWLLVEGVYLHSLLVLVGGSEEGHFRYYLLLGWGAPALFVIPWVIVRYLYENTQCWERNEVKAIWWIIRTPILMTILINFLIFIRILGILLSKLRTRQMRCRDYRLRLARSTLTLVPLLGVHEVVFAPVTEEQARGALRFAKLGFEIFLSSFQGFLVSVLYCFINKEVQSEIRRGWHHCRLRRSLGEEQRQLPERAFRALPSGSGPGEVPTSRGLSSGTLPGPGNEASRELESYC

hNPY2R = target: T3, hNPY2R (Homo sapiens, UniProt P49146); assay: hNPY2R CreLuc assay in 0.5% and 100% plasma (HEK-293 CRE-luciferase reporter cells); conditions: HEK-293 reporter cells
T3 construct: expressed in transfected cells; host or cells: HEK-293 CRE-luciferase reporter cells
T3 sequence (P49146 1-381): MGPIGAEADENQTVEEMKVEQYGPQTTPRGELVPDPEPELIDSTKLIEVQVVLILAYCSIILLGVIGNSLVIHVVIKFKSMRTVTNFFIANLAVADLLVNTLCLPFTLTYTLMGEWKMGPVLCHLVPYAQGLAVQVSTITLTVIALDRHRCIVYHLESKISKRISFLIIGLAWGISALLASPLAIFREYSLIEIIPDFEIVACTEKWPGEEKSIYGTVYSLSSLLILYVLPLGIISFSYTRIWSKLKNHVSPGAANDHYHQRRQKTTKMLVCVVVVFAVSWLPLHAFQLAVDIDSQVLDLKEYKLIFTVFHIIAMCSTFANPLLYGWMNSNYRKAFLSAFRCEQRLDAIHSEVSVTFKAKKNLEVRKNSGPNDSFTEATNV

[1] = 0.5% human plasma, read-out: hGLP1R 0.5% hP
[2] = 100% human plasma, read-out: hGLP1R 100% hP
[3] = 0.5% human plasma, read-out: hGIPR 0.5% hP
[4] = 100% human plasma, read-out: hGIPR 100% hP
[5] = 100% human plasma, read-out: hNPY2R 100% hP
[6] = 0.5% human plasma, read-out: hNPY2R 0.5% hP

T1 sequence (P43220 24-463): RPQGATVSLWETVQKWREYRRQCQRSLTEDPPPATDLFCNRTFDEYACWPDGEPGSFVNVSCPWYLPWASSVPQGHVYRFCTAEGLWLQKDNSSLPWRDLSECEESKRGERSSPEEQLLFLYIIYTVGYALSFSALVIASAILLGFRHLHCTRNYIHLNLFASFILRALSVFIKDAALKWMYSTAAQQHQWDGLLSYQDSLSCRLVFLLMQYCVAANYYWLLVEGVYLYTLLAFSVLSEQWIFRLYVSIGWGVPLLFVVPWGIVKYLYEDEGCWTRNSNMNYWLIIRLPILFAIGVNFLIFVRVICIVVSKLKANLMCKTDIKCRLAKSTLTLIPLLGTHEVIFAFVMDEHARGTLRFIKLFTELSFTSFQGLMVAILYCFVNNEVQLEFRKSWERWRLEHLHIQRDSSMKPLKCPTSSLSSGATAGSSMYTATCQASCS

EC50 (hGLP1R; [1]) [nM] | EC50 (hGLP1R; [2]) [nM] | EC50 (hGIPR; [3]) [nM] | EC50 (hGIPR; [4]) [nM] | EC50 (hNPY2R; [5]) [nM] | EC50 (hNPY2R; [6]) [nM] | SMILES
0.9 | 1.7 | 0.3 | 1.7 | 125 | – | CC[C@H](C)[C@H](NC(=O)[C@H](CC(C)C)NC(=O)[C@H](Cc1c[nH]cn1)NC(=O)[C@H](CCCNC(=N)N)NC(=O)[C@@H](NC(=O)[C@H](Cc1ccccc1)NC(=O)[C@H](C)NC(=O)C(C)(C)NC(=O)[C@H](CCC(N)=O)NC(=O)[C@H](C)NC(=O)[C@H](CCC(N)=O)NC(=O)[C@H](CCCCN)NC(=O)[C@H](CCC(=O)O)NC(=O)[C@H](CC(C)C)NC(=O)C(C)(C)NC(=O)[C@@H](NC(=O)[C@H](CO)NC(=O)[C@H](Cc1ccc(O)cc1)NC(=O)[C@H](CC(=O)O)NC(=O)[C@H](CO)NC(=O)[C@@H](NC(=O)[C@H](Cc1ccccc1)NC(=O)[C@@H](NC(=O)CNC(=O)[C@H](CCC(=O)O)NC(=O)C(C)(C)NC(=O)[C@@H](N)Cc1ccc(O)cc1)[C@@H](C)O)[C@@H](C)O)[C@@H](C)CC)C(C)C)C(=O)N[C@@H](CC(N)=O)C(=O)N[C@@H](CCCCNC(=O)CC[C@H](NC(=O)CC[C@H](NC(=O)CC[C@H](NC(=O)CC[C@H](NC(=O)CC[C@H](NC(=O)CCCCCCCCCCCCCCCCC(=O)O)C(=O)O)C(=O)O)C(=O)O)C(=O)O)C(=O)O)C(=O)NC(C)(C)C(=O)N[C@H](C(=O)N[C@@H](CCCNC(=N)N)C(=O)N[C@@H](CCC(N)=O)C(=O)N[C@@H](CCCNC(=N)N)CN[C@@H](Cc1ccc(O)cc1)C(N)=O)[C@@H](C)O [Compound 96, Y-Aib-E-G-T-F-T-S-D-Y-S-I-Aib-L-E-K-Q-A-Q-Aib-A-F-V-R-H-L-I-N-K(1,3)-Aib-T-R-Q-dOR-Y-NH2.C18DA-gGlu-gGlu-gGlu-gGlu-gGlu(1,2)] (H-Y[Aib]EGTFTSDYSI[Aib]LEKQAQ[Aib]AFVRHLINK([γGlu-γGlu-γGlu-γGlu-γGlu-C18 diacid])[Aib]TRQ-{Argψ(CH2NH)TyrNH2})
0.8 | – | 0.3 | 5.9 | 162 | – | CC[C@H](C)[C@H](NC(=O)[C@H](CC(C)C)NC(=O)[C@H](Cc1c[nH]cn1)NC(=O)[C@H](CCCNC(=N)N)NC(=O)[C@@H](NC(=O)[C@H](Cc1ccccc1)NC(=O)[C@H](C)NC(=O)C(C)(C)NC(=O)[C@H](CCC(N)=O)NC(=O)[C@H](C)NC(=O)[C@H](CCC(N)=O)NC(=O)[C@H](CCCCN)NC(=O)[C@H](CCC(=O)O)NC(=O)[C@H](CC(C)C)NC(=O)C(C)(C)NC(=O)[C@@H](NC(=O)[C@H](CO)NC(=O)[C@H](Cc1ccc(O)cc1)NC(=O)[C@H](CC(=O)O)NC(=O)[C@H](CO)NC(=O)[C@@H](NC(=O)[C@H](Cc1ccccc1)NC(=O)[C@@H](NC(=O)CNC(=O)[C@H](CCC(=O)O)NC(=O)C(C)(C)NC(=O)[C@@H](N)Cc1ccc(O)cc1)[C@@H](C)O)[C@@H](C)O)[C@@H](C)CC)C(C)C)C(=O)N[C@@H](CC(N)=O)C(=O)N[C@@H](CCCCNC(=O)[C@@H](N)CCCCNC(=O)CC[C@H](NC(=O)CC[C@H](NC(=O)CC[C@H](NC(=O)CC[C@H](NC(=O)CC[C@H](NC(=O)CC[C@H](NC(=O)CCCCCCCCCCCCCCCCC(=O)O)C(=O)O)C(=O)O)C(=O)O)C(=O)O)C(=O)O)C(=O)O)C(=O)NC(C)(C)C(=O)N[C@H](C(=O)N[C@@H](CCCNC(=N)N)C(=O)N[C@@H](CCC(N)=O)C(=O)N[C@@H](CCCNC(=N)N)C(=O)N[C@@H](Cc1ccc(F)cc1)C(N)=O)[C@@H](C)O [Compound 86, Y-Aib-E-G-T-F-T-S-D-Y-S-I-Aib-L-E-K-Q-A-Q-Aib-A-F-V-R-H-L-I-N-K(1,3)-Aib-T-R-Q-R-Phe4F-NH2.C18DA-gGlu-gGlu-gGlu-gGlu-gGlu-gGlu-eLys(1,2)]
0.6 | 3.8 | 0.5 | – | – | 7.2 | CC[C@H](C)[C@H](NC(=O)[C@H](Cc1ccccc1)NC(=O)[C@H](C)NC(=O)C(C)(C)NC(=O)[C@H](CCC(N)=O)NC(=O)[C@H](C)NC(=O)[C@H](CCC(N)=O)NC(=O)[C@H](CCCCN)NC(=O)[C@H](CC(=O)O)NC(=O)[C@H](CC(C)C)NC(=O)C(C)(C)NC(=O)[C@@H](NC(=O)[C@H](CO)NC(=O)[C@H](Cc1ccc(O)cc1)NC(=O)[C@H](CC(=O)O)NC(=O)[C@H](CO)NC(=O)[C@@H](NC(=O)[C@H](Cc1ccccc1)NC(=O)[C@@H](NC(=O)CNC(=O)[C@H](CCC(=O)O)NC(=O)C(C)(C)NC(=O)[C@@H](N)Cc1ccc(O)cc1)[C@@H](C)O)[C@@H](C)O)[C@@H](C)CC)C(=O)N[C@@H](CCCNC(=N)N)C(=O)N[C@@H](Cc1c[nH]cn1)C(=O)N[C@@H](CC(C)C)C(=O)N[C@H](C(=O)N[C@@H](CC(N)=O)C(=O)N[C@@H](CCCCNC(=O)[C@@H](N)CCCCNC(=O)CC[C@H](NC(=O)CC[C@H](NC(=O)CC[C@H](NC(=O)CC[C@H](NC(=O)CC[C@H](NC(=O)CC[C@H](NC(=O)CCCCCCCCCCCCCCCCCCC(=O)O)C(=O)O)C(=O)O)C(=O)O)C(=O)O)C(=O)O)C(=O)O)C(=O)NC(C)(C)C(=O)N[C@H](C(=O)N[C@@H](CCCNC(=N)N)C(=O)N[C@@H](CCC(N)=O)C(=O)N[C@@H](CCCNC(=N)N)C(=O)N[C@@H](Cc1ccc(O)cc1)C(N)=O)[C@@H](C)O)[C@@H](C)CC [Compound 81, Y-Aib-E-G-T-F-T-S-D-Y-S-I-Aib-L-D-K-Q-A-Q-Aib-A-F-I-R-H-L-I-N-K(1,3)-Aib-T-R-Q-R-Y-NH2.C20DA-gGlu-gGlu-gGlu-gGlu-gGlu-gGlu-eLys(1,2)]
0.7 | 1.8 | 0.5 | 2 | – | 6.4 | CC[C@H](C)[C@H](NC(=O)[C@H](CC(C)C)NC(=O)[C@H](Cc1c[nH]cn1)NC(=O)[C@H](CCCNC(=N)N)NC(=O)[C@@H](NC(=O)[C@H](Cc1ccccc1)NC(=O)[C@H](C)NC(=O)C(C)(C)NC(=O)[C@H](CCC(N)=O)NC(=O)[C@H](C)NC(=O)[C@H](CCC(N)=O)NC(=O)[C@H](CCCCN)NC(=O)[C@H](CC(=O)O)NC(=O)[C@H](CC(C)C)NC(=O)C(C)(C)NC(=O)[C@@H](NC(=O)[C@H](CO)NC(=O)[C@H](Cc1ccc(O)cc1)NC(=O)[C@H](CC(=O)O)NC(=O)[C@H](CO)NC(=O)[C@@H](NC(=O)[C@H](Cc1ccccc1)NC(=O)[C@@H](NC(=O)CNC(=O)[C@H](CCC(=O)O)NC(=O)C(C)(C)NC(=O)[C@@H](N)Cc1ccc(O)cc1)[C@@H](C)O)[C@@H](C)O)[C@@H](C)CC)C(C)C)C(=O)N[C@@H](CC(N)=O)C(=O)N[C@@H](CCCCNC(=O)[C@@H](N)CCCCNC(=O)CC[C@H](NC(=O)CC[C@H](NC(=O)CC[C@H](NC(=O)CC[C@H](NC(=O)CC[C@H](NC(=O)CC[C@H](NC(=O)CC[C@H](NC(=O)CCCCCCCCCCCCCCCCCCC(=O)O)C(=O)O)C(=O)O)C(=O)O)C(=O)O)C(=O)O)C(=O)O)C(=O)O)C(=O)NC(C)(C)C(=O)N[C@H](C(=O)N[C@@H](CCCNC(=N)N)C(=O)N[C@@H](CCC(N)=O)C(=O)N[C@@H](CCCNC(=N)N)CN[C@@H](Cc1ccc(O)cc1)C(N)=O)[C@@H](C)O [Compound 16, Y-Aib-E-G-T-F-T-S-D-Y-S-I-Aib-L-D-K-Q-A-Q-Aib-A-F-V-R-H-L-I-N-K(1,3)-Aib-T-R-Q-dOR-Y-NH2.C20DA-gGlu-gGlu-gGlu-gGlu-gGlu-gGlu-gGlu-eLys(1,2)] (H-Y[Aib]EGTFTSDYSI[Aib]LDKQAQ[Aib]AFVRHLINK([εLys-γGlu-γGlu-γGlu-γGlu-γGlu-γGlu-γGlu-C20 diacid])[Aib]TRQ-{Argψ(CH2NH)TyrNH2})

Source: US20250382344A1, “Soluble GLP1/GIP/NPY2 Receptor Triple Agonists” (Boehringer Ingelheim International GmH, priority 2024, published 2025)
